“And” between values parts separate entries of the source, which are not always exact repeats. Equal entries are not always repeated.
System: BDF1 mice, Adenocarcinoma 755 s.c., tumor weight T/C
Assay: NCI In Vivo Anticancer Drug Screen. Data for tumor model Adenocarcinoma 755 (subcutaneous) in B6D2F1 (BDF1) mice
Details: endpoint: mean tumor weight, higher = larger tumour
Protocol: The antitumor activity of compounds was measured in mice bearing transplantable tumors. Survival or tumor size were measured and the results are expressed as the measurement made in the treated group (T) divided by the measurement made in the vehicle treated control group (C). The tumor model used in this assay is Adenocarcinoma 755 (subcutaneous) in B6D2F1 (BDF1) mice

[1] = dose: 50.0 mg/kg/injection, schedule: Q01DX011 (ip), vehicle: carboxymethylcellulose (CMC)
[2] = dose: 50.0 mg/kg/injection, schedule: Q01DX011 (ip), vehicle: methylcellulose (MC)
[3] = dose: 100.0 mg/kg/injection, schedule: Q01DX011 (ip), vehicle: carboxymethylcellulose (CMC)
[4] = dose: 100.0 mg/kg/injection, schedule: Q01DX011 (ip), vehicle: methylcellulose (MC)

## c1ccc(CNc2ncnc3[nH]ncc23)cc1
dose: 4.0 mg/kg/injection, schedule: Q01DX011 (ip), vehicle: carboxymethylcellulose (CMC)
  T/C: 83 % of control
dose: 8.0 mg/kg/injection, schedule: Q01DX011 (ip), vehicle: carboxymethylcellulose (CMC)
  T/C: 69 % of control
dose: 16.0 mg/kg/injection, schedule: Q01DX011 (ip), vehicle: carboxymethylcellulose (CMC)
  T/C: 22 % of control
dose: 31.25 mg/kg/injection, schedule: Q01DX011 (ip), vehicle: carboxymethylcellulose (CMC)
  T/C: 54 % of control

## Cc1ccc(C(=O)Nc2ccc(S(=O)(=O)O)c3cc(S(=O)(=O)O)cc(S(=O)(=O)O)c23)cc1NC(=O)c1cccc(NC(=O)Nc2cccc(C(=O)Nc3cc(C(=O)Nc4ccc(S(=O)(=O)O)c5cc(S(=O)(=O)O)cc(S(=O)(=O)O)c45)ccc3C)c2)c1 (tested in a mixture with another compound)
dose: 170.0 mg/kg/injection, schedule: Q01DX011 (ip), vehicle: methylcellulose (MC)
  T/C: 88 % of control and 82 % of control
dose: 680.0 mg/kg/injection, schedule: Q01DX011 (ip), vehicle: methylcellulose (MC)
  T/C: 98 % of control

## C=CCSc1nc(N)nc2nc[nH]c12
dose: 2.0 mg/kg/injection, schedule: Q01DX011 (ip), vehicle: methylcellulose (MC)
  T/C: 50 % of control
dose: 4.0 mg/kg/injection, schedule: Q01DX011 (ip), vehicle: methylcellulose (MC)
  T/C: 41 % of control
dose: 16.0 mg/kg/injection, schedule: Q01DX011 (ip), vehicle: methylcellulose (MC)
  T/C: 3 % of control

## Clc1ncnc2nc[nH]c12
dose: 1.87 mg/kg/injection, schedule: Q01DX006 (iv), vehicle: carboxymethylcellulose (CMC)
  T/C: 96 % of control
dose: 1.87 mg/kg/injection, schedule: Q01DX011 (im), vehicle: carboxymethylcellulose (CMC)
  T/C: 47 % of control
dose: 1.87 mg/kg/injection, schedule: Q01DX011 (ip), vehicle: carboxymethylcellulose (CMC)
  T/C: 83 % of control
dose: 1.87 mg/kg/injection, schedule: Q01DX011 (sc), vehicle: carboxymethylcellulose (CMC)
  T/C: 103 % of control
dose: 2.5 mg/kg/injection, schedule: Q01DX011 (ip), vehicle: carboxymethylcellulose (CMC)
  T/C: 66 % of control
dose: 3.12 mg/kg/injection, schedule: Q01DX011 (oral), vehicle: carboxymethylcellulose (CMC)
  T/C: 110 % of control
dose: 3.12 mg/kg/injection, schedule: Q#A X022 (ip), vehicle: carboxymethylcellulose (CMC)
  T/C: 48 % of control
dose: 3.75 mg/kg/injection, schedule: Q01DX006 (iv), vehicle: carboxymethylcellulose (CMC)
  T/C: 94 % of control
dose: 3.75 mg/kg/injection, schedule: Q01DX011 (im), vehicle: carboxymethylcellulose (CMC)
  T/C: 83 % of control
dose: 3.75 mg/kg/injection, schedule: Q01DX011 (ip), vehicle: carboxymethylcellulose (CMC)
  T/C: 62 % of control
dose: 3.75 mg/kg/injection, schedule: Q01DX011 (sc), vehicle: carboxymethylcellulose (CMC)
  T/C: 76 % of control
dose: 5.0 mg/kg/injection, schedule: Q01DX011 (ip), vehicle: carboxymethylcellulose (CMC)
  T/C: 36 % of control and 58 % of control
dose: 5.0 mg/kg/injection, schedule: Q03DX004 (ip), vehicle: carboxymethylcellulose (CMC)
  T/C: 81 % of control
dose: 6.25 mg/kg/injection, schedule: Q01DX011 (oral), vehicle: carboxymethylcellulose (CMC)
  T/C: 55 % of control
dose: 6.25 mg/kg/injection, schedule: Q#A X022 (ip), vehicle: carboxymethylcellulose (CMC)
  T/C: 41 % of control
dose: 7.5 mg/kg/injection, schedule: Q01DX006 (iv), vehicle: carboxymethylcellulose (CMC)
  T/C: 82 % of control
dose: 7.5 mg/kg/injection, schedule: Q01DX011 (im), vehicle: carboxymethylcellulose (CMC)
  T/C: 22 % of control
dose: 7.5 mg/kg/injection, schedule: Q01DX011 (ip), vehicle: carboxymethylcellulose (CMC)
  T/C: 34 % of control
dose: 7.5 mg/kg/injection, schedule: Q01DX011 (sc), vehicle: carboxymethylcellulose (CMC)
  T/C: 28 % of control
dose: 10.0 mg/kg/injection, schedule: Q01DX011 (ip), vehicle: carboxymethylcellulose (CMC)
  T/C: 27 % of control
dose: 10.0 mg/kg/injection, schedule: Q01DX011 (ip), vehicle: methylcellulose (MC)
  T/C: 44 % of control
dose: 10.0 mg/kg/injection, schedule: Q03DX004 (ip), vehicle: carboxymethylcellulose (CMC)
  T/C: 66 % of control
dose: 12.5 mg/kg/injection, schedule: Q01DX011 (oral), vehicle: carboxymethylcellulose (CMC)
  T/C: 11 % of control
dose: 12.5 mg/kg/injection, schedule: Q#A X022 (ip), vehicle: carboxymethylcellulose (CMC)
  T/C: 8 % of control
dose: 15.0 mg/kg/injection, schedule: Q01DX006 (iv), vehicle: carboxymethylcellulose (CMC)
  T/C: 25 % of control
dose: 15.0 mg/kg/injection, schedule: Q01DX011 (ip), vehicle: carboxymethylcellulose (CMC)
  T/C: 13 % of control
dose: 15.0 mg/kg/injection, schedule: Q01DX011 (sc), vehicle: carboxymethylcellulose (CMC)
  T/C: 7 % of control
dose: 15.0 mg/kg/injection, schedule: Q03DX004 (ip), vehicle: carboxymethylcellulose (CMC)
  T/C: 55 % of control
dose: 18.75 mg/kg/injection, schedule: Q07DX002 (ip), vehicle: carboxymethylcellulose (CMC)
  T/C: 46 % of control
dose: 25.0 mg/kg/injection, schedule: Q01DX011 (oral), vehicle: carboxymethylcellulose (CMC)
  T/C: 2 % of control
dose: 25.0 mg/kg/injection, schedule: Q03DX004 (ip), vehicle: carboxymethylcellulose (CMC)
  T/C: 35 % of control
dose: 37.5 mg/kg/injection, schedule: Q01DX001 (ip), vehicle: carboxymethylcellulose (CMC)
  T/C: 49 % of control and 66 % of control
dose: 37.5 mg/kg/injection, schedule: Q07DX002 (ip), vehicle: carboxymethylcellulose (CMC)
  T/C: 16 % of control
[1]
  T/C: 3 % of control
[2]
  T/C: 5 % of control
dose: 50.0 mg/kg/injection, schedule: Q01DX011 (sc), vehicle: carboxymethylcellulose (CMC)
  T/C: 1 % of control
dose: 50.0 mg/kg/injection, schedule: Q03DX004 (ip), vehicle: carboxymethylcellulose (CMC)
  T/C: 5 % of control
dose: 75.0 mg/kg/injection, schedule: Q01DX001 (ip), vehicle: carboxymethylcellulose (CMC)
  T/C: 18 % of control and 42 % of control
dose: 75.0 mg/kg/injection, schedule: Q03DX004 (ip), vehicle: carboxymethylcellulose (CMC)
  T/C: 1 % of control
dose: 75.0 mg/kg/injection, schedule: Q07DX002 (ip), vehicle: carboxymethylcellulose (CMC)
  T/C: 1 % of control
[3]
  T/C: 1 % of control and 4 % of control
[4]
  T/C: 6 % of control
dose: 150.0 mg/kg/injection, schedule: Q01DX001 (ip), vehicle: carboxymethylcellulose (CMC)
  T/C: 24 % of control and 29 % of control
dose: 150.0 mg/kg/injection, schedule: Q07DX002 (ip), vehicle: carboxymethylcellulose (CMC)
  T/C: 1 % of control
dose: 175.0 mg/kg/injection, schedule: Q01DX001 (ip), vehicle: carboxymethylcellulose (CMC)
  T/C: 8 % of control and 17 % of control
dose: 175.0 mg/kg/injection, schedule: Q07DX002 (ip), vehicle: carboxymethylcellulose (CMC)
  T/C: 4 % of control
dose: 300.0 mg/kg/injection, schedule: Q01DX011 (ip), vehicle: methylcellulose (MC)
  T/C: 4 % of control
dose: 350.0 mg/kg/injection, schedule: Q01DX001 (ip), vehicle: carboxymethylcellulose (CMC)
  T/C: 5 % of control and 8 % of control

## Nc1cccc2c(=O)[nH][nH]c(=O)c12
dose: 62.5 mg/kg/injection, schedule: Q01DX011 (ip), vehicle: water
  T/C: 71 % of control
dose: 125.0 mg/kg/injection, schedule: Q01DX011 (ip), vehicle: water
  T/C: 82 % of control
dose: 250.0 mg/kg/injection, schedule: Q01DX011 (ip), vehicle: water
  T/C: 59 % of control

## O=c1[nH]cnc2c1ncn2C1CCCC1
dose: 18.1 mg/kg/injection, schedule: Q01DX011 (ip), vehicle: carboxymethylcellulose (CMC)
  T/C: 81 % of control
dose: 18.12 mg/kg/injection, schedule: Q01DX011 (ip), vehicle: carboxymethylcellulose (CMC)
  T/C: 124 % of control
dose: 36.2 mg/kg/injection, schedule: Q01DX011 (ip), vehicle: carboxymethylcellulose (CMC)
  T/C: 78 % of control
dose: 36.25 mg/kg/injection, schedule: Q01DX011 (ip), vehicle: carboxymethylcellulose (CMC)
  T/C: 90 % of control
dose: 56.0 mg/kg/injection, schedule: Q01DX001 (ip), vehicle: carboxymethylcellulose (CMC)
  T/C: 70 % of control
dose: 72.5 mg/kg/injection, schedule: Q01DX011 (ip), vehicle: carboxymethylcellulose (CMC)
  T/C: 100 % of control and 87 % of control
dose: 112.0 mg/kg/injection, schedule: Q01DX001 (ip), vehicle: carboxymethylcellulose (CMC)
  T/C: 70 % of control
dose: 145.0 mg/kg/injection, schedule: Q01DX011 (ip), vehicle: carboxymethylcellulose (CMC)
  T/C: 75 % of control and 85 % of control
dose: 225.0 mg/kg/injection, schedule: Q01DX001 (ip), vehicle: carboxymethylcellulose (CMC)
  T/C: 37 % of control

## OCC1CCC(n2cnc3c(=S)nc[nH]c32)C1 (configuration not stated)
[1]
  T/C: 89 % of control
[3]
  T/C: 88 % of control
dose: 200.0 mg/kg/injection, schedule: Q01DX011 (ip), vehicle: carboxymethylcellulose (CMC)
  T/C: 48 % of control

## NC(=O)OCCI
dose: 3.1 mg/kg/injection, schedule: Q01DX011 (ip), vehicle: methylcellulose (MC)
  T/C: 47 % of control
dose: 12.5 mg/kg/injection, schedule: Q01DX011 (ip), vehicle: methylcellulose (MC)
  T/C: 52 % of control and 61 % of control
dose: 25.0 mg/kg/injection, schedule: Q01DX011 (ip), vehicle: methylcellulose (MC)
  T/C: 31 % of control and 47 % of control
[2]
  T/C: 7 % of control
[4]
  T/C: 1 % of control

From PubChem BioAssay AID180 (DTP/NCI, 2004)
